Where two headings read alike, the source gives them in different places.
Legend:
IRF3 deamidation = IRF3 deamidation by two-dimensional gel electrophoresis and immunoblotting; format: cell-based, human; conditions: Caco-2 cells expressing ORF8 or A549 cells expressing Nsp8; 5 μM
IFNB1 expression = format: cell-based, human; conditions: 293T cells pre-treated 2 h, Sendai virus infection 9 h
IFN-β promoter activity = format: cell-based, human; conditions: for IFN induction: Sendai virus; for effect on IFN induction, compared with AE-1-10: 293T cells with SeV infection
NF-κB promoter activity = format: cell-based, human; conditions: 293T cells
CTP synthesis = format: cell-based, human
[1] = tested on: antiviral genes IFNB1, ISG56, CCL5 and Mx1; format: cell-based, human
SARS-CoV-2 [2] = format: cell-based
SARS-CoV-2 [3] = format: cell-based; remark: listed apart in the source
CTPS1 [4] = target: T1, CTPS1 (Homo sapiens, UniProt P17812); format: binding; set-up: Flag; expressed in transfected cells; host or cells: 293T cells expressing Flag-CTPS1; conditions: 293T cells expressing Flag-CTPS1
T1 sequence (P17812 1-591): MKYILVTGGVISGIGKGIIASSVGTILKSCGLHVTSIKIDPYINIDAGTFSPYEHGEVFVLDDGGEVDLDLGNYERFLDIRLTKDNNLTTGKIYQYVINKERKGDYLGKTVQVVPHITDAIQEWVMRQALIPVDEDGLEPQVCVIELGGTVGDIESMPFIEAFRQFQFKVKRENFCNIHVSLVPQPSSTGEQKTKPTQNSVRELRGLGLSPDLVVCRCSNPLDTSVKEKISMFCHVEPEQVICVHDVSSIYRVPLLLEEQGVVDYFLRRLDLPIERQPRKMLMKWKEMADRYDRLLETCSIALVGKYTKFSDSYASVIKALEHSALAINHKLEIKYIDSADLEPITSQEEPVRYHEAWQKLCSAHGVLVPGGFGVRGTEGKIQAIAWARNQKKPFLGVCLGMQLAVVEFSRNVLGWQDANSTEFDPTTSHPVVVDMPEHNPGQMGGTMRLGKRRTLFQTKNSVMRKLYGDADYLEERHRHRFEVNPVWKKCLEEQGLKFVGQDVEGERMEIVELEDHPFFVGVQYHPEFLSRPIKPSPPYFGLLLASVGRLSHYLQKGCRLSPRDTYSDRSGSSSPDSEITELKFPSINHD

SARS-CoV-2 [5] = tested on: SARS-CoV-2; set-up: species or system mice; conditions: mouse, in vivo, ip, 35 mg/kg
CTPS1 [6] = target: T1, CTPS1; experiment: Click-based cross-linking, affinity purification and mass spectrometry to identify cellular targets; format: binding; set-up: endogenous in cells; conditions: ranked lower than several other proteins; data not shown
CTPS1 [7] = target: T1, CTPS1; format: biochemical; set-up: made in house; conditions: with respect to UTP, 2 mM ATP, 2 mM L-glutamine, 0.1 mM GTP, Michaelis-Menten

In the case of `COc1cccc(NC(=O)c2cccc(NC(=O)CCl)c2)c1` [AE-1-10], the “inhibition of IRF3 deamidation” value (IRF3 deamidation) is reported as “best efficacy to inhibit IRF3 deamidation”, the IFNB1 expression (IFNB1 expression) is reported as “increased IFNB1 expression in a dose-dependent manner” and the IFN induction (IFN-β promoter activity; CTPS1-depleted 293T cells) is reported as “failed to do so”. The IFN induction (IFN-β promoter activity; control 293T cells) was “elevated IFN induction”, the NF-κB activation (NF-κB promoter activity) was “no effect” and the “[15N]CTP and [15N]CDP” value (CTP synthesis) was “reduced [^15N]CTP and, much more so [^15N]CDP in a dose-dependent manner”. For the same compound, the “intracellular concentration of [15N]CTP and [15N]CDP” value (CTP synthesis) was “reduced the intracellular concentration of [^15N]CTP and [^15N]CDP”, the antiviral gene expression [1] was “elevated antiviral gene expression” and the “expression of antiviral genes (IFNB1, ISG56, CCL5, Mx1)” value [1] was “elevated”. The “viral RNA” value (SARS-CoV-2 [2]) was “reduced viral RNA” and the viral yield (SARS-CoV-2 [3]) was “reduced viral RNA and yield”.
`CCCCCNC(=O)c1ccc(NC(=O)CCl)s1` [B1] was tested, and the “reduction of viral RNA abundance compared to the vehicle (DMSO)” value (shortened to “reduction of viral RNA abundance … (DMSO)”) (SARS-CoV-2 [2]) was ~5 order of magnitude and the “effect on viral titer” value (SARS-CoV-2 [3]) was “reduced viral titer to the limit of detection”.
With `COc1ccccc1NC(=O)c1cc(NC(=O)CCl)cs1` [B2] the “reduction of viral RNA abundance … (DMSO)” value (SARS-CoV-2 [2]) was ~5 order of magnitude and the “effect on viral titer” value (SARS-CoV-2 [3]) was “reduced viral titer to the limit of detection”.
In the case of `O=C(CCl)Nc1cccc(C(=O)NC2CCCC2)c1` [B4], the “reduction of viral RNA abundance relative to C9” value (SARS-CoV-2 [2]) is reported as “significant improvement compared to C9”.
In the case of `Cc1ccccc1NC(=O)c1cccc(NC(=O)CCl)c1` [B5], the “reduction of viral RNA abundance relative to C9” value (SARS-CoV-2 [2]) is reported as “significant improvement compared to C9” and the “effect on viral titer” value (SARS-CoV-2 [3]) is reported as “better effect than C9”.
`COc1cccc(NC(=O)c2cc(NC(=O)CCl)cs2)c1` [B7] was tested, and the “reduction of viral RNA abundance … (DMSO)” value (SARS-CoV-2 [2]) was ~5 order of magnitude and the “effect on viral titer” value (SARS-CoV-2 [3]) was “reduced viral titer to the limit of detection”.
For `CCc1ccccc1NC(=O)c1cccc(NC(=O)CCl)c1` [B8], the “reduction of viral RNA abundance relative to C9” value (SARS-CoV-2 [2]) was “significant improvement compared to C9” and the “effect on viral titer” value (SARS-CoV-2 [3]) was “better effect than C9”.
`C#CCOc1cccc(NC(=O)c2cccc([N+](=O)[O-])c2)c1` [BE-2-10] was tested, and the “reaction (labeling) with CTPS1” value (CTPS1 [4]) was “reacted with CTPS1 in a dose-dependent manner”.
With `O=C(CCl)Nc1cccc(C(=O)NC2CCCCC2)c1` [C1] the “effect on IFN induction, compared with AE-1-10” value (“effect … compared with AE-1-10” below) (IFN-β promoter activity) was “no effect”.
In the case of `COc1cccc(N(C)C(=O)c2cccc(NC(=O)CCl)c2)c1` [C2], the “effect … compared with AE-1-10” value (IFN-β promoter activity) is reported as “no effect”.
With `COc1ccc(NC(=O)c2cccc(NC(=O)CCl)c2)cc1` [C4] the “effect … compared with AE-1-10” value (IFN-β promoter activity) was “improved effect to increase IFN induction”.
`COc1ccccc1NC(=O)c1cccc(NC(=O)CCl)c1` [C5] was tested, and the “effect … compared with AE-1-10” value (IFN-β promoter activity) was “improved effect to increase IFN induction” and the “antiviral activity in SARS-CoV-2 infection, compared to AE-1-10” value (SARS-CoV-2 [3]) was “more robust antiviral activity”.
With `O=C(CCl)Nc1cccc(C(=O)Nc2ncc[nH]2)c1` [C6] the “effect … compared with AE-1-10” value (IFN-β promoter activity) was “modest effect”.
With `O=C(Nc1ccccc1)c1ccc([N+](=O)[O-])s1` [C7] the “effect … compared with AE-1-10” value (IFN-β promoter activity) was “modest effect”.
For `O=C(CCl)Nc1csc(C(=O)Nc2ccccc2)c1` [C8], the “effect … compared with AE-1-10” value (IFN-β promoter activity) was “improved effect to increase IFN induction”.
For `CCCCCNC(=O)c1cccc(NC(=O)CCl)c1` [C9], the “effect … compared with AE-1-10” value (IFN-β promoter activity) was “improved effect to increase IFN induction”, the “reduction of viral RNA abundance … (DMSO)” value (SARS-CoV-2 [2]) was ~2 order of magnitude and the “antiviral activity in SARS-CoV-2 infection, compared to AE-1-10” value (SARS-CoV-2 [3]) was “more robust antiviral activity”. The “reduction of SARS-CoV-2 titer” value (SARS-CoV-2 [3]) was ~3 order of magnitude and the “protection against SARS-CoV-2 infection” value (SARS-CoV-2 [5]) was “protect against infection”.
In the case of `[N-]=[N+]=CC(=O)CC[C@H](N)C(=O)O` [DON, 6-diazo-5-oxo-L-norleucine, reference compound], the “Sendai virus-induced IFN-β gene expression” value (IFN-β promoter activity; CTPS1 depleted and control 293T cells) is reported as “elevated”.
For `C#CCOc1cccc(Nc2ncnc3ccc(NC(=O)CCl)cc23)c1` [Q6ca], the cellular target identification (CTPS1 [6]) was “identification of CTPS1 as a cellular target”.
Work on “ORF7b: SARS-CoV-2 polypeptide transiently expressed in the 293T cells from which CTPS1 was purified” yielded a Kcat (CTPS1 [7]) of 0.0147 ± 0.006 s⁻¹ and a Km (CTPS1 [7]) of 30.5 ± 21.5 mM.
With “ORF8: SARS-CoV-2 polypeptide transiently expressed in the 293T cells from which CTPS1 was purified” the Kcat (CTPS1 [7]) was 0.0212 ± 0.0137 s⁻¹ and the Km (CTPS1 [7]) was 55.2 ± 50.3 mM.

From patent publication US20240425473A2 (priority 2021, published 2024)
